Legend:
[1] = system: Atrial natriuretic factor (ANF) expression, P19 cells; experiment: ANF test (ANF promoter luciferase reporter) in P19 cells; type: cell-based, murine; design: key to Evaluation (luminescence in relation to the blank): −: decrease of luminescence compared to the blank value; +: measurable increase; ++: at least 1.5-fold increase; +++: at least 2-fold increase; conditions: for ANF expression level / efficiency, stated in words: ANF test, P19 cells (DTAB and summary statements also cover C2C12); for Evaluation (luminescence in relation to the blank) / fold induction at 1 µM: P19 cells (**), compound 1 μM in DMSO, 8 days culture, relative to DMSO blank; for fold induction at 1 µM: Mus musculus, 192 h, read-out: Evaluation (luminescence in relation to the blank)
Source text: Atrial natriuretic factor (ANF) or atrial natriuretic peptide (ANP) is a cyclic peptide hormone made up of 28 amino acids, which is predominantly emitted by the muscle cells (myocytes) of the atrium of the heart. It is stored in the atrium as a pro-hormone made of 126 amino acids and is cleaved by serine protease corine into an N-terminal part and the biologically active ANF, which is often used as a cardiac-specific marker protein. In cell differentiation measurements, i.e. in determining the extent to which certain cells have become “cardiac cell-like” by differentiation, often a reporter gene located downstream of the ANF gene is used, as it expression product is easier to detect than the concentration of ANF in a cellular culture, for example, a luciferase gene. Luciferase in an enzyme which catalyzes the oxidation of a luminescent substrate (luciferine). While that happens, light is emitted, and the intensity of that light is correlated with the expression level of ANF and can therefore serve as a measure of ANF expression.
Initial attempts of ANF expression screenings were performed with P19 cells, i.e. murine embryonal carcinoma cells obtained from the ATCC, or C2C12 cells, i.e. a murine myoblast cell line, as models. In preparation, a plasmid was first constructed by amplifying a gene fragment containing a rat ANF promoter region and subcloning it into the PCL3-BV luciferase reporter plasmid of Promega. The P19 cells were temporarily transfected with said plasmid and cultured in Modified Eagle's Medium alpha (MEM-α) with 7.5% neonatal calf serum and 2.5% fetal bovine serum at 37° C. under 5% CO2 in monolayers for 8 days, during which the medium was exchanged three times. The respective compounds were added at about 60% confluence in DMSO as solvents at a concentration of 1 μM or DMSO alone (as a blank). The luminescence of the samples was measured with a Perkin Elmer Victor V 1420 Multilabel Counter. Their increase or decrease in the presence of the compounds of formula (I) is given in Table 1 below in relation to the blank.
The evaluations have the following meanings: • − decrease of luminescence compared to the blank value; • + measurable increase; • ++ at least 1.5-fold increase; • +++ at least 2-fold increase; • * represents C2C12 cells; and • ** represents P19 cells.

melting point | SMILES | ANF expression level / efficiency, stated in words [1] | Evaluation (luminescence in relation to the blank) [1] | fold induction at 1 µM [1]
191 to 192 °C | CC(C)(C)OC(=O)c1cccc(Nc2nc(Oc3ccccc3)nc(Oc3ccccc3Cl)n2)c1 [(21), 3-{[4-(2-chlorophenoxy)-6-phenoxy-1,3,5-triazin-2-yl]amino}benzoic acid t-butyl ester] | – | – | –
139 to 141 °C | CC(C)(C)OC(=O)c1cccc(Nc2nc(Oc3ccccc3)nc(Oc3ccc(C(C)(C)C)cc3)n2)c1 [(22), 3-{[4-(4-t-butylphenoxy)-6-phenoxy-1,3,5-triazin-2-yl]amino}benzoic acid t-butyl ester] | – | – | –
68 to 70 °C | COc1ccc(Oc2nc(Nc3cccc(C(=O)OC(C)(C)C)c3)nc(Oc3ccccc3)n2)cc1 [(23), 3-{[4-(4-methoxyphenoxy)-6-phenoxy-1,3,5-triazin-2-yl]amino}benzoic acid t-butyl ester] | – | – | –
176.5 to 178.5 °C | CC(C)(C)OC(=O)c1cccc(Nc2nc(Oc3ccccc3)nc(Oc3ccc(C#N)cc3)n2)c1 [(24), 3-{[4-(4-cyanophenoxy)-6-phenoxy-1,3,5-triazin-2-yl]amino}benzoic acid t-butyl ester] | – | – | –
137 to 148 °C | CC(C)(C)OC(=O)c1cccc(Nc2nc(Oc3ccccc3)nc(Oc3cccc([N+](=O)[O-])c3)n2)c1 [(25), 3-{[4-(3-nitrophenoxy)-6-phenoxy-1,3,5-triazin-2-yl]amino}benzoic acid t-butyl ester] | – | – | –
76 to 79 °C | COc1cc(C=O)ccc1Oc1nc(Nc2cccc(C(=O)OC(C)(C)C)c2)nc(Oc2ccccc2)n1 [(26), 3-{[4-(4-formyl-2-methoxyphenoxy)-6-phenoxy-1,3,5-triazin-2-yl]-amino}benzoic acid t-butyl ester] | – | – | –
88 to 106 °C | COc1ccc(Oc2nc(Nc3cccc(C(=O)OC(C)(C)C)c3)nc(Oc3ccc(C=O)cc3OC)n2)cc1 [(27), 3-{[4-(4-formyl-2-methoxyphenoxy)-6-(4-methoxyphenoxy)-1,3,5-triazin-2-yl]amino}benzoic acid t-butyl ester] | – | – | –
161 to 164 °C | COc1ccc(Oc2nc(Nc3cccc(C(=O)OC(C)(C)C)c3)nc(Oc3ccc(C#N)cc3)n2)cc1 [(28), 3-{[4-(4-cyanophenoxy)-6-(4-methoxyphenoxy)-1,3,5-triazin-2-yl]-amino}benzoic acid t-butyl ester] | – | – | –
244 to 247 °C | O=C(O)c1cccc(Nc2nc(Oc3ccccc3)nc(Oc3ccc(Cl)cc3)n2)c1 [(29), 3-{[4-(4-chlorophenoxy)-6-phenoxy-1,3,5-triazin-2-yl]amino}benzoic acid] | – | – | ≥ 2
180 to 182 °C | COc1ccc(Oc2nc(Nc3cccc(C(=O)O)c3)nc(Oc3ccc(C=O)cc3OC)n2)cc1 [(37), 3-{[4-(4-formyl-2-methoxyphenoxy)-6-(4-methoxyphenoxy)-1,3,5-triazin-2-yl]amino}benzoic acid] | – | – | –

The next lines start with the molecule.

SMILES | melting point | ANF expression level / efficiency, stated in words [1] | Evaluation (luminescence in relation to the blank) [1] | fold induction at 1 µM [1]
CCNc1nc(Cl)nc(Nc2ccc(OC)cc2)n1 [(3), 6-chloro-N2-ethyl-N4-(4-methoxyphenyl)-1,3,5-triazin-2.4-diamine] | 174 to 176 °C | the poorest measurement results among all compounds | −** | –
COc1ccc(Nc2ncnc(NCCO)n2)cc1 [(4), 2-[4-(4-methoxyphenylamino)-1,3,5-triazin-2-ylamino]ethanol] | 160 to 164 °C | the poorest measurement results among all compounds | −** | –
CCOC(=O)c1ccc(Nc2nc(Oc3ccccc3)nc(Oc3ccccc3)n2)cc1 [(5), 4-[(4.6-diphenoxy-1,3,5-triazin-2-yl)amino]benzoic acid ethyl ester] | 159 to 161 °C | – | −** | –
COC(=O)c1cccc(Nc2nc(Oc3ccccc3)nc(Oc3ccccc3)n2)c1 [(6), 3-[(4.6-diphenoxy-1,3,5-triazin-2-yl)amino]benzoic acid methyl ester] | 198 to 199.5 °C | – | – | –
COC(=O)c1cccc(Nc2nc(Oc3ccccc3)nc(Oc3ccc(Cl)cc3)n2)c1 [(7), 3-{[4-(4-chlorophenoxy)-6-phenoxy-1,3,5-triazin-2-yl]amino}benzoic acid methyl ester] | 186.5 to 188 °C | – | −** | –
COC(=O)c1cccc(Nc2nc(Oc3ccccc3)nc(Oc3cccc(Cl)c3)n2)c1 [(8), 3-{[4-(3-chlorophenoxy)-6-phenoxy-1,3,5-triazin-2-yl]amino}benzoic acid methyl ester] | 151.5 to 156 °C | – | – | ≥ 1.5
COC(=O)c1cccc(Nc2nc(Oc3ccccc3)nc(Oc3ccccc3Cl)n2)c1 [(9), 3-{[4-(2-chlorophenoxy)-6-phenoxy-1,3,5-triazin-2-yl]amino}benzoic acid methyl ester] | 139 to 141.5 °C | – | −** | –
COC(=O)c1cccc(Nc2nc(Oc3ccccc3)nc(Oc3ccc(C(C)(C)C)cc3)n2)c1 [(10), 3-{[4-(4-t-butylphenoxy)-6-phenoxy-1,3,5-triazin-2-yl]amino}benzoic acid methyl ester] | 85 to 86 °C | – | −** | –
COC(=O)c1cccc(Nc2nc(Oc3ccccc3)nc(Oc3ccc(OC)cc3)n2)c1 [(11), 3-{[4-(4-methoxyphenoxy)-6-phenoxy-1,3,5-triazin-2-yl]amino}benzoic acid methyl ester] | 56 to 60 °C | – | −** | –
COC(=O)c1cccc(Nc2nc(Oc3ccccc3)nc(Oc3ccc(C#N)cc3)n2)c1 [(12), 3-{[4-(4-cyanophenoxy)-6-phenoxy-1,3,5-triazin-2-yl]amino}benzoic acid methyl ester] | 116.5 to 120 °C | – | −** | –
COC(=O)c1cccc(Nc2nc(Oc3ccccc3)nc(Oc3cccc([N+](=O)[O-])c3)n2)c1 [(13), 3-{[4-(3-nitrophenoxy)-6-phenoxy-1,3,5-triazin-2-yl]amino}benzoic acid methyl ester] | – | – | −** | –
COC(=O)c1cccc(Nc2nc(Oc3ccc(OC)cc3)nc(Oc3ccc(C=O)cc3OC)n2)c1 [(15), 3-{[4-(4-formyl-2-methoxyphenoxy)-6-(4-methoxyphenoxy)-1,3,5-triazin-2-yl]amino}benzoic acid methyl ester] | 79 to 82 °C | – | – | –
COC(=O)c1cccc(Nc2nc(Oc3ccc(OC)cc3)nc(Oc3ccc(Br)cc3C=O)n2)c1 [(16), 3-{[4-(4-bromo-2-formylphenoxy)-6-(4-methoxyphenoxy)-1,3,5-triazin-2-yl]amino}benzoic acid methyl ester] | 180 °C | – | – | –
COC(=O)c1cccc(Nc2nc(Oc3ccc(C#N)cc3)nc(Oc3ccc(OC)cc3)n2)c1 [(17), 3-{[4-(4-cyanophenoxy)-6-(4-methoxyphenoxy)-1,3,5-triazin-2-yl]-amino}benzoic acid methyl ester] | 132 to 134.5 °C | – | – | –
CC(C)(C)OC(=O)c1cccc(Nc2nc(Oc3ccccc3)nc(Oc3ccccc3)n2)c1 [(18), 3-[(4.6-diphenoxy-1,3,5-triazin-2-yl)amino]benzoic acid t-butyl ester] | 208 to 209 °C | – | – | –
CC(C)(C)OC(=O)c1cccc(Nc2nc(Oc3ccccc3)nc(Oc3ccc(Cl)cc3)n2)c1 [(19), 3-{[4-(4-chlorophenoxy)-6-phenoxy-1,3,5-triazin-2-yl]amino}benzoic acid t-butyl ester] | 172.5 to 174 °C | – | – | –
CC(C)(C)OC(=O)c1cccc(Nc2nc(Oc3ccccc3)nc(Oc3cccc(Cl)c3)n2)c1 [(20), 3-{[4-(3-chlorophenoxy)-6-phenoxy-1,3,5-triazin-2-yl]amino}benzoic acid t-butyl ester] | 187.5 to 190.5 °C | – | – | –
OCc1cccc(Nc2nc(Oc3ccccc3)nc(Oc3cccc(Cl)c3)n2)c1 [(42), {3-[(4-(3-chlorophenoxy)-6-phenoxy-1,3,5-triazin-2-yl)amino]phenyl}-methanol] | – | – | +** and (42) (m-chloro): + | –
COc1ccc(Oc2nc(Nc3cccc(CO)c3)nc(Oc3ccccc3)n2)cc1 [(45), {3-[(4-(4-methoxyphenoxy)-6-phenoxy-1,3,5-triazin-2-yl)amino]-phenyl}methanol] | – | – | +** | –

Source: patent publication US9611457B2, “Triazine derivatives as differentiation catalysts” (TECHNISCHE UNIVERSITAET WIEN, priority 2011, dated 2017)
